The NIST ThermoML archive (doi:10.1016/j.jct.2015.04.021)
Numbers after ± are expanded uncertainties.

Experiment: xn = mol fraction of the nth substance listed
Details: 101.3 kPa, Liquid, Pycnometric method

SMILES | mass density (303.15 K, x1 = 0.75) [kg/m3] | mass density (303.15 K, x1 = 0.8) [kg/m3] | mass density (303.15 K, x1 = 0.833) [kg/m3] | mass density (313.15 K, x1 = 0.75) [kg/m3] | mass density (313.15 K, x1 = 0.8) [kg/m3] | mass density (313.15 K, x1 = 0.833) [kg/m3] | mass density (323.15 K, x1 = 0.75) [kg/m3] | mass density (323.15 K, x1 = 0.8) [kg/m3] | mass density (323.15 K, x1 = 0.833) [kg/m3] | mass density (333.15 K, x1 = 0.75) [kg/m3] | mass density (333.15 K, x1 = 0.8) [kg/m3] | mass density (333.15 K, x1 = 0.833) [kg/m3]
OCc1ccco1 [2-hydroxymethylfuran] + C[N+](C)(C)CCO.[Cl-] | 1131.8 ± 1.3 | 1131.5 ± 1.3 | 1130.9 ± 1.3 | 1125.2 ± 1.3 | 1124.3 ± 1.3 | 1123.8 ± 1.3 | 1118.6 ± 1.3 | 1117.1 ± 1.3 | 1116.6 ± 1.3 | 1112 ± 1.3 | 1109.9 ± 1.3 | 1109.5 ± 1.3
CC(=O)CCC(=O)O [4-oxopentanoic acid] + C[N+](C)(C)CCO.[Cl-] | 1134.6 ± 1.1 | 1134.1 ± 1.1 | 1133.7 ± 1.1 | 1127.6 ± 1.1 | 1127.3 ± 1.1 | 1127 ± 1.1 | 1120.9 ± 1.2 | 1120.4 ± 1.2 | 1120.2 ± 1.2 | 1113.8 ± 1.2 | 1113.1 ± 1.2 | 1113 ± 1.2
